Where two headings read alike, the source gives them in different places.
Columns and labels:
[1] = target: T1, human recombinant ETA receptor (Homo sapiens, UniProt P25101); assay: Inhibition of [125I]ET-1 binding to membranes from CHO cells carrying human ETA receptors
T1 construct: expressed in transfected cells; host or cells: CHO cells (microsomal membranes)
T1 sequence (P25101 21-427): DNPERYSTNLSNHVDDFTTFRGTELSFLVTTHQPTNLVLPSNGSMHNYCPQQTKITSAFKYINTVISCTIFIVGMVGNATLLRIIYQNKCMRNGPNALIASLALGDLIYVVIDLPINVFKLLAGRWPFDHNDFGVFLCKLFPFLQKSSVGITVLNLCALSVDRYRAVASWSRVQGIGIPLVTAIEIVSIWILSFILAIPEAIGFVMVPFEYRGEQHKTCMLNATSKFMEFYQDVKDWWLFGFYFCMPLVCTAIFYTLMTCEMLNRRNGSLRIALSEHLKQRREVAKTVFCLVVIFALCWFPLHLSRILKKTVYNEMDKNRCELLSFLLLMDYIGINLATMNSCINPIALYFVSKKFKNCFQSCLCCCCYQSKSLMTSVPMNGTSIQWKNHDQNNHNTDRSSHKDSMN

[2] = target: T2, human recombinant ETB receptor (Homo sapiens, UniProt P24530); assay: Inhibition of [125I]ET-1 binding to membranes from CHO cells carrying human ETB receptors
T2 construct: expressed in transfected cells; host or cells: CHO cells (microsomal membranes)
T2 sequence (P24530 27-442): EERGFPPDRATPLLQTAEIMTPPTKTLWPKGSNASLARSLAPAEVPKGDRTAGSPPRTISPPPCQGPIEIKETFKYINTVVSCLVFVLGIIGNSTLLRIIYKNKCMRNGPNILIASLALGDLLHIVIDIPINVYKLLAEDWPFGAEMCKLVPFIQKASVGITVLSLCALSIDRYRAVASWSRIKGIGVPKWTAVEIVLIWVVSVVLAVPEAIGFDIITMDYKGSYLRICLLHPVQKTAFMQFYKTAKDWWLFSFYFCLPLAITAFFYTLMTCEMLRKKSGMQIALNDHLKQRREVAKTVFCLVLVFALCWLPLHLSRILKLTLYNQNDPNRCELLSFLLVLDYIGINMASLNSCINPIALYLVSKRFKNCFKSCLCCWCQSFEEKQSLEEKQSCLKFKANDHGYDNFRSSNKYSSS

[3] = target: T3, ETA receptors (rat aortic rings) (Rattus norvegicus, UniProt P26684); assay: Inhibition of endothelin-1-induced contraction on isolated rat aortic rings
T3 construct: The thoracic aorta or trachea were excised, dissected and cut in 3–5 mm rings; from tissue; host or cells: thoracic aorta rings of adult Wistar rats, endothelium removed
T3 sequence (P26684 21-426): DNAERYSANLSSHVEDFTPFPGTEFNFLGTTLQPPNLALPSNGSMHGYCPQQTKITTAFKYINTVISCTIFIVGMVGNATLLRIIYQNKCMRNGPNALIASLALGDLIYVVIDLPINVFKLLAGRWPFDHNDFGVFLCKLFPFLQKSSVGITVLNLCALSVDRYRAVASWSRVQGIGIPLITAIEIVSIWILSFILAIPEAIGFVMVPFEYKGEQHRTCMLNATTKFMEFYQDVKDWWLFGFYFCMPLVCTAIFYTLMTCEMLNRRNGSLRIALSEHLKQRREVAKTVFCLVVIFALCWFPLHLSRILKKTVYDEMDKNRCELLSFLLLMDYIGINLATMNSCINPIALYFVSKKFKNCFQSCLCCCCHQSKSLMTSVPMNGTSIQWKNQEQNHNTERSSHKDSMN

[4] = read-out: pA2 value ETA (converted)

Row | IC50 [1] [nM] | IC50 [2] [nM] | Kb [3, 4] [nM] | Structure (SMILES) | Kb [3] [nM]
1 | 3.5 | 864 | 1.78 | Cc1ccc(-c2c(NS(=O)(=O)NCc3ccccc3)nc(-c3ccncc3)nc2OCCOc2ncc(Br)cn2)cc1 [Example 32] | –
2 | 16 | – | 14.8 | COc1ccccc1Oc1c(NS(=O)(=O)NCc2ccccc2)nc(-c2ncccn2)nc1OCCOc1ncc(Br)cn1 [Example 37] | –
3 | 5.6 | – | 3.98 | O=S(=O)(NCc1ccccc1)Nc1ncnc(OCCOc2ncc(Br)cn2)c1-c1ccc(Cl)cc1 [Example 14, benzyl sulfamic acid-[6-[2-(5-bromo-pyrimidin-2-yloxy)-ethoxy]-5-(4-chlorophenyl)-4-pyrimidinyl]-amide] | –
4 | 1.3 | 567 | – | CCNS(=O)(=O)Nc1ncnc(OCCOc2ncc(SC)cn2)c1-c1ccc(Cl)cc1 [Example 116] | –
5 | 18 | 409 | – | COc1ccccc1Oc1c(NS(=O)(=O)NCc2ccccn2)nc(-c2ncccn2)nc1OCCOc1ncc(Br)cn1 [Example 156] | –
6 | 3.4 | 232 | – | COc1ccccc1Oc1c(NS(=O)(=O)NCc2ccco2)nc(-c2ncccn2)nc1OCCOc1ncc(Br)cn1 [Example 60] | –
7 | 7 | 1000 | – | COc1cnc(OCCOc2ncnc(NS(=O)(=O)NCc3cccs3)c2-c2ccc(Cl)cc2)nc1 [Example 21] | –
8 | 1.32 | 347 | – | COc1ccc(Cl)c(Oc2c(NS(=O)(=O)NCc3ccccc3)ncnc2OCCOc2ncc(SC)cn2)c1 [Example 213, Benzylsulfamic acid [6-[2-(5-methylsulfanyl-pyrimidin-2-yloxy)-ethoxy]-5-(2-chloro-5-methoxy-phenoxy)-pyrimidin-4-yl]-amide] | –
9 | 1.24 | 335 | – | COc1cnc(OCCOc2ncnc(NS(=O)(=O)NCc3ccccc3)c2-c2ccc(Br)cc2)nc1 [Example 101] | –
10 | 5.2 | 80 | – | COc1cnc(OCCOc2nc(-c3ncccn3)nc(NS(=O)(=O)NCc3ccc(Cl)cc3)c2Oc2ccccc2OC)nc1 [Example 55] | –
11 | 3.6 | 1590 | – | COc1cnc(OCCOc2ncnc(NS(=O)(=O)NCc3ccco3)c2-c2ccc(Cl)cc2)nc1 [Example 23] | –
12 | 1.2 | 408 | – | CSc1cnc(OCCOc2ncnc(NS(=O)(=O)NCc3ccc4c(c3)OCO4)c2-c2ccc(C)cc2)nc1 [Example 147] | –
13 | 1.8 | 164 | – | COc1ccccc1Oc1c(NS(=O)(=O)NCc2ccccc2)nc(-c2ccncc2)nc1OCCOc1ncc(SC)cn1 [Example 74] | –
14 | 8.3 | > 1000 | – | O=S(=O)(Nc1ncnc(OCCOc2ncc(Br)cn2)c1-c1ccc(Cl)cc1)NC1CC1 [Example 114] | –
15 | 1.7 | 42 | – | COc1cccc(CNS(=O)(=O)Nc2nc(-c3ncccn3)nc(OCCOc3ncc(Br)cn3)c2Oc2ccccc2OC)c1 [Example 170] | –
16 | 0.76 | – | 3.63 | O=S(=O)(NCc1ccccc1)Nc1ncnc(OCCOc2ncc(Br)cn2)c1-c1ccc(Br)cc1 [Example 100] | –
17 | 0.44 | 80 | – | COc1ccc(CNS(=O)(=O)Nc2ncnc(OCCOc3ncc(Br)cn3)c2Oc2cc(OC)ccc2Cl)cc1 [Example 163] | –

More lines, now with the values behind:

Row | Structure (SMILES) | IC50 [1] [nM] | IC50 [2] [nM] | Kb [3, 4] [nM] | Kb [3] [nM]
18 | COc1ccc(CNS(=O)(=O)Nc2nc(-c3ccncc3)nc(OC)c2Oc2ccccc2OC)cc1 [Example 161] | 6.2 | > 1000 | – | 513
19 | COc1ccccc1Oc1c(NS(=O)(=O)Nc2ccc(C(C)C)cc2)nc(-c2ccncc2)nc1OCCOc1ncc(Br)cn1 [Example 5, 4-i-propyl-phenyl sulfamic acid-[6-[2-(5-bromo-pyrimidin-2-yloxy)-ethoxy]-5-(o-methoxy-phenoxy)-2-(4-pyridyl)-pyrimidin-4-yl]-amide] | 28 | 1280 | 224 | –
20 | COc1ccccc1Oc1c(NS(=O)(=O)NCc2ccccc2)nc(-c2ncccn2)nc1OCCOC(=O)Nc1ccccn1 [Example 41] | 3.2 | 41.6 | – | 4.27
21 | Cc1ccc(-c2c(NS(=O)(=O)NCC3CC3)ncnc2OCCOc2ncc(Br)cn2)cc1 [Example 119] | 4.2 | > 1000 | – | 41.7
22 | O=S(=O)(NCc1cccs1)Nc1ncnc(OCCOc2ncc(Br)cn2)c1-c1ccc(Cl)cc1 [Example 20] | 4.9 | 1720 | – | 61.7
23 | COc1cccc(CNS(=O)(=O)Nc2nc(-c3ncccn3)nc(OCCOc3ncccn3)c2Oc2ccccc2OC)c1 [Example 171] | 11 | 61 | – | –
24 | C#CCOc1nc(-c2ccnc(-c3nnn[nH]3)c2)nc(NS(=O)(=O)NCc2ccccc2)c1Oc1ccccc1OC [Example 210, Benzylsulfamic acid [5-(2-methoxy-phenoxy)-6-prop-2-ynyloxy-2-[2-(1H-tetrazol-5-yl)-pyridin-4-yl]-pyrimidin-4-yl]-amide] | 23 | 936 | – | –
25 | COc1cnc(OCCOc2nc(-c3ncccn3)nc(NS(=O)(=O)NCC3CCCCC3)c2Oc2ccccc2OC)nc1 [Example 134] | 2.4 | 187 | – | –
26 | COc1ccccc1Oc1c(NS(=O)(=O)NCc2ccc(Cl)cc2)nc(-c2ncccn2)nc1OCCOC(=O)Nc1ccccn1 [Example 57] | 4.9 | 35.8 | – | –
27 | COc1ccccc1Oc1c(NS(=O)(=O)NCc2ccccn2)nc(-c2ccncc2)nc1OCCOc1ncc(SC)cn1 [Example 158] | 10 | 80 | – | –
28 | COc1ccccc1Oc1c(NS(=O)(=O)Nc2ccc(C(C)C)cc2)nc(-c2ccncc2)nc1OCCOc1ccc(C(F)(F)F)cn1 [Example 6, 4-i-propyl-phenyl sulfamic acid-[6-[2-(5-trifluoromethyl-pyridin-2-yloxy)-ethoxy]-5-(o-methoxy-phenoxy)-2-(4-pyridyl)-pyrimidin-4-yl]-amide] | 286 | 7240 | – | –
29 | COc1ccc(CNS(=O)(=O)Nc2nc(-c3ncccn3)nc(OCCOC(=O)Nc3ccccn3)c2Oc2ccccc2OC)cc1 [Example 50] | 0.87 | 7.5 | – | –
30 | COc1ccccc1Oc1c(NS(=O)(=O)NCC2CC2)nc(-c2ccncc2)nc1OCCOc1ncc(Br)cn1 [Example 123] | 2.9 | 124 | – | –
31 | COc1ccc(CNS(=O)(=O)Nc2nc(-c3ncccn3)nc(OCCOC(=O)Nc3ccccc3)c2Oc2ccccc2OC)cc1OC [Example 168] | 2.7 | 1.6 | – | –
32 | COc1ccccc1Oc1c(NS(=O)(=O)NC2CC2)nc(-c2ncccn2)nc1OCCOc1ncc(Br)cn1 [Example 199] | 12 | 205 | – | –
33 | COc1ccccc1Oc1c(NS(=O)(=O)NC2CC2)nc(-c2ccncc2)nc1OCCOc1ncc(Br)cn1 [Example 202] | 9.6 | 351 | – | –
34 | COc1ccccc1Oc1c(NS(=O)(=O)NCCc2ccccc2)nc(-c2ccncc2)nc1OCCOC(=O)Nc1ccccc1 [Example 181] | 14.3 | 224 | – | –
35 | COc1ccccc1Oc1c(NS(=O)(=O)NCc2ccccc2)nc(-c2ncccn2)nc1OCCOC(=O)Nc1cnccn1 [Example 42] | 3.5 | 146 | – | –
36 | COc1ccccc1Oc1c(NS(=O)(=O)Nc2ccc(C(C)(C)C)cc2)nc(-c2ccncc2)nc1OCCO [Example 10, 4-t-butyl-phenyl sulfamic acid-[6-(2-hydroxy-ethoxy)-5-(o-methoxy-phenoxy)-2-(4-pyridyl)-4-pyrimidinyl]-amide] | 2870 | 193 | – | –
37 | COc1ccccc1Oc1c(NS(=O)(=O)Nc2ccc(C(C)C)cc2)nc(-c2ccncc2)nc1OC [Example 1, 4-i-propyl-phenyl sulfamic acid-[6-methoxy-5-(o-methoxyphenoxy)-2-(4-pyridyl)-pyrimidin-4-yl]-amide] | 721 | 8430 | – | –
38 | COc1ccccc1Oc1c(NS(=O)(=O)NCc2ccccc2)nc(-c2ccnc(-c3nnn[nH]3)c2)nc1OCCO [Example 208, Benzylsulfamic acid [6-(2-hydroxy-ethoxy)-5-(2-methoxy-phenoxy)-2-[2-(1H-tetrazol-5-yl)-pyridin-4-yl]-pyrimidin-4-yl]-amide] | 17 | 342 | – | –

Reference: patent US7094781B2, “Sulfamides and their use as endothelin receptor antagonists” (Actelion Pharmaceuticals Ltd., priority 2000, dated 2006)
